# Target: Peptidyl-prolyl cis-trans isomerase A (Homo sapiens) (UniProt P62937)
# Test: Permeation ratio of cell-free CyP binding to intracellular CyP binding
# Assay type: cell-based
# Chain of Peptidyl-prolyl cis-trans isomerase A (Homo sapiens) (P62937 whole entry, looked up): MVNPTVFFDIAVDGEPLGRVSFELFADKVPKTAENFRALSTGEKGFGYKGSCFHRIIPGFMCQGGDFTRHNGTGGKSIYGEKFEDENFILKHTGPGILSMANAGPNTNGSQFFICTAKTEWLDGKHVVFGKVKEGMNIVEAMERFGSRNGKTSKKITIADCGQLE
row,Structure (SMILES),Ratio
1,CC[C@H]1C[C@H](C)[C@@]2(NC1=O)O[C@@H](C[C@H](O)[C@@H](C)CCCCCC(C)[C@@H]1CCCCC[C@H](O)[C@H](C)[C@@H](O)[C@@H](CCC(C)=O)C(=O)N[C@@H](C(C)C)C(=O)N[C@@H](Cc3cccc(O)c3)C(=O)N3CCC[C@H](N3)C(=O)O1)[C@H](C)[C@H](O)[C@@H]2C (stereo partly drawn),65
2,CCCC[C@H]1C(=O)N[C@@H](C(C)C)C(=O)N[C@@H](Cc2cccc(O)c2)C(=O)N2CCC[C@H](N2)C(=O)O[C@H](/C(C)=C/C=C/CC[C@H](C)[C@@H](O)C[C@@H]2O[C@@]3(NC(=O)[C@@H](CC)C[C@@H]3C)[C@@H](C)[C@@H](O)[C@H]2C)C/C=C/C=C/[C@H](O)[C@H](C)[C@H]1O,0.8
3,CC[C@H]1C[C@H](C)[C@@]2(NC1=O)O[C@@H](C[C@H](O)[C@@H](C)CCCCCC(C)[C@@H]1CCCCC[C@H](O)[C@H](C)[C@@H](O)[C@@H](CCC(C)=O)C(=O)N[C@@H](C(C)C)C(=O)N[C@@H](Cc3ccccc3)C(=O)N3CCC[C@H](N3)C(=O)O1)[C@H](C)[C@H](O)[C@@H]2C (stereo partly drawn),270

# Source: ChEMBL document CHEMBL1134103
